Test results published in publication PMC3496014 (Journal of structural biology, 2012).
Like-named read-outs stand apart in the source and are kept apart here.

Test system: PfAtg8 WT
Assay type: binding, P. falciparum
Conditions: for WTRU/NOISE (response divided by overall noise, WT): pH 8
[1] = ratio of WT to K19E/K47E normalized response, hit threshold at least 1.5

Row | Compound | (WTRU/NOISE)/(MutRU/NOISE) | WTRU/NOISE (response divided by overall noise, WT) | (WTRU/NOISE)/(MutRU/NOISE) [1]
1 | O=c1ccc2cc(O)c(O)cc2o1 [Fragment 268, 6,7-dihydroxycoumarin] | 3.73 | 1.79 | 
2 | Oc1ccc(O)c(O)c1 [Fragment 408, 1,2,4-benzenetriol] |  | 5.33 | 3.56
3 | Oc1cccc(O)c1O [Fragment 410, 1,2,3-benzenetriol] |  | 22.79 | 6.19
4 | O=[N+]([O-])c1ccc(Cl)c2nonc12 [Fragment 470, 4-chloro-7-nitrobenzofurazan] |  |  | 1.52
5 | O=[N+]([O-])c1ccc(O)c(O)c1 [Fragment 537, 4-nitrocatechol] |  | 2.39 | 1.90
6 | O=C1CC(=O)c2ccccc21 [Fragment 792, 1,3-indandione] |  | 2.38 | 2.15
